Experiment: pH stability of prodrugs of DFMO in PBS buffer (LC/MS/MS)
Format: physicochemical
Experimental: The stability of prodrugs of DFMO to different pH conditions over time was assayed. Prodrugs were reconstituted in dimethylsulfoxide (DMSO), diluted into phosphate buffered saline (PBS) of different pH values, incubated for different lengths of time at room temperature, and then analyzed by LC/MS/MS for changes in the levels of each prodrug. […] Following this initial phase, the (2)-prodrug was reasonably stable over the next 24 hours so that less than 20% of the intact prodrug was lost at pH 3 and 5, and about 60% of the intact material was lost at pH 8 over a day. […] Similar results were obtained with the other prodrugs tested.

For `CC(OC(=O)NCCCC(N)(C(=O)O)C(F)F)OC(=O)C(C)C` (stereo not drawn) [(2)-prodrug, 2-amino-2-(difluoromethyl)-5-[1-(2-methylpropanoyloxy)ethoxycarbonylamino]pentanoic acid], the “intact prodrug lost over the next 24 hours” value (PBS pH 3, room temperature, 24 hours following initial phase) was “less than 20%”, the “decrease in the amount of intact, non-degraded prodrug over the first hour of incubation” value (PBS pH 3, room temperature) was “about 60%” and the “intact prodrug lost over the next 24 hours” value (PBS pH 5, room temperature, 24 hours following initial phase) was “less than 20%”. For the same compound, the “decrease in the amount of intact, non-degraded prodrug over the first hour of incubation” value (PBS pH 5, room temperature) was 30-35%, the “intact material lost over a day” value (PBS pH 8, room temperature, 24 hours following initial phase) was “about 60%” and the “decrease in the amount of intact, non-degraded prodrug over the first hour of incubation” value (PBS pH 8, room temperature) was 30-35%.

Reference: US10464883B2, “Compounds and methods for the treatment of neurodegenerative diseases” (Resilio Therapeutics, LLC, priority 2015, dated 2019)
